Test results reported in patent US20250108034A1, “EYE DROP FORMULATION” (priority 2021, published 2025).
One block for each compound: values may come before it.

What was measured:
[1] = system: conjunctival and corneal surface of rabbit eyes; assay: Ocular administration of cyclodextrins to rabbit eyes (irritation/tolerability); details: concentrations of 5 and 12.5%
[2] = Stability study (shelf-life) of ASP and ASP-CD complexes in physiological saline; assay type: physicochemical; details: for Shelf-life (t90%): physiological saline
Procedure: The determination of ASP concentration was performed with HPLC using an Agilent 1260 (Agilent Technologies, Santa Clara, USA). As stationary phase a Zorbax Eclipse© C18 column 100×4.6 mm, 5 μm (Phenomenex, Torrance, CA, USA) was applied. Isocratic elution with purified water and methanol 10:90 (v/v) was applied for 6 min at a flow rate of 1.0 mL/min at 25° C. 10 μL of the samples were injected to determine the ASP concentration. The chromatograms were detected at 255 nm using UV-VIS diode array detector. Data were evaluated using ChemStation B.04.03. Software (Agilent Technologies, Santa Clara, USA). […] Chemical stability of ASP and ASP-CD complexes was investigated in physiological saline at room condition (25±0.5° C.) and cold place condition (4±0.5° C.) for 5 days. Actual drug content was quantified using HPLC in predetermined time intervals to predict shelf-life of formulations.

[3] = Ex vivo corneal drug permeation with Raman mapping; assay type: in vitro ADME, porcine; details: after 15 min treatment, compared to 5 min treatment
Procedure: The ex vivo penetration of ASP was examined with HPLC and Raman microscopy. Freshly donated porcine eyes obtained from the slaughterhouse was placed on a sterile cotton wool bed moistened with physiological saline solution and kept in refrigerator box during the transportation. The porcine eye was placed into a Teflon cell, where the cornea was uncovered and surrounded by a Teflon ring to prevent the flow of eye drops. The cornea was instilled with 1000 μL of physiological saline solution and 50 μL of ASP-CD formulation was added to the covering saline solution, which can imitate physiological dilution caused by tear fluid and incubated at 35° C. […] ASP content in the residual solution, aqueous humour and cornea was determined with HPLC. The corneal retention of AS was calculated according to Eq. 2., whereas apparent permeability by using the following equation: […]
Raman mapping was carried out to examine the distribution of selected ASP-CD formulation and initial ASP on porcine cornea. […] For localization of permeated formulation, the Raman spectra of ASP was set as profile, whose frequency of occurrence was determined by measuring the relative intensity of ASP in the Raman maps with ImageJ 1.4 software (National Institutes of Health, Bethesda, MD, USA).

[4] = system: conjunctival and corneal surface of rabbit eyes; details: in vivo

Compound: randomly substituted methyl-beta-cyclodextrin [RAMEB]
Ocular irritation [1]: irritating

Effect of BC on the shelf-life ([2]; 0.004 and 0.008% BC): no significant effect
Compound: benzalkonium chloride [BC]

Relative intensity of ASP in Raman maps [3]: increased | Shelf-life (t90%) ([2]; stored at 4° C.): 4.58 h | Shelf-life (t90%) ([2]; stored at 25° C.): 8.37 h
Compound: CCCCCCCCCCCCCCCC(=O)OC[C@H](O)[C@H]1OC(=O)C(O)=C1O [ASP, L-Ascorbic acid 6-palmitate]

Compound: CC(O)COC[C@H]1O[C@@H]2O[C@H]3[C@H](O)[C@@H](O)[C@@H](O[C@H]4[C@H](O)[C@@H](O)[C@@H](O[C@H]5[C@H](O)[C@@H](O)[C@@H](O[C@H]6[C@H](O)[C@@H](O)[C@@H](O[C@H]7[C@H](O)[C@@H](O)[C@@H](O[C@H]8[C@H](O)[C@@H](O)[C@@H](O[C@H]1[C@H](O)[C@H]2O)O[C@@H]8COCC(C)O)O[C@@H]7COCC(C)O)O[C@@H]6COCC(C)O)O[C@@H]5COCC(C)O)O[C@@H]4COCC(C)O)O[C@@H]3COCC(C)O (stereo partly drawn) [HPBCD, (2-Hydroxypropyl)-beta-cyclodextrin]
Ocular tolerability [4]: well tolerated
